Test results from patent publication US20250154134A1, “COMPOUND AS FAK INHIBITOR AND USE THEREOF” (WIGEN BIOMEDICINE TECHNOLOGY (SHANGHAI) CO., LTD., priority 2022, published 2025).
pIC50: −log10 of the molar value.

Experiments:
FAK recombinant protein = FAK recombinant protein (Homo sapiens (Human), UniProt Q05397); experiment: Inhibitory activity against FAK enzyme (HTRF, TK substrate); assay type: biochemical
Experimental: A compound serially diluted with DMSO was mixed with a FAK recombinant protein. After the mixture was left to stand at room temperature for 10 min, a biotin-labeled TK substrate (TK) and ATP were added. […] The inhibition percentage and IC50 of the compound were calculated compared to the DMSO control group.

PC3 cells [1] = experiment: PC3 cell proliferation, 3D activity assay (3D culture, 14 days); assay type: cell-based, human; conditions: Homo sapiens, PC-3, 336 h, read-out: 3D inhibitory activity against PC3 cells IC50
Experimental: (§1) 2D activity assay: 1200 PC3 cells were seeded in a 96-well plate. After overnight adherence culture, A compound serially diluted was added. […] The growth of the cells was evaluated, and the IC50 of the compound inhibiting cell growth was calculated. 3D activity assay: PC3 cells were seeded in a 96-well plate at 1200 cells/well, and 3D culture was performed. 14 days after a compound serially diluted was added, the growth of the cells was measured. The inhibition percentage and IC50 of the compound were calculated compared to the DMSO control group.

PC3 cells [2] = experiment: PC3 cell proliferation, 2D activity assay (Cell Titer-Lumi, 72 h); assay type: cell-based, human; conditions: Homo sapiens, PC-3, read-out: 2D inhibitory activity against PC3 cells IC50
Experimental: as §1

Sequence of FAK recombinant protein (Q05397 whole entry): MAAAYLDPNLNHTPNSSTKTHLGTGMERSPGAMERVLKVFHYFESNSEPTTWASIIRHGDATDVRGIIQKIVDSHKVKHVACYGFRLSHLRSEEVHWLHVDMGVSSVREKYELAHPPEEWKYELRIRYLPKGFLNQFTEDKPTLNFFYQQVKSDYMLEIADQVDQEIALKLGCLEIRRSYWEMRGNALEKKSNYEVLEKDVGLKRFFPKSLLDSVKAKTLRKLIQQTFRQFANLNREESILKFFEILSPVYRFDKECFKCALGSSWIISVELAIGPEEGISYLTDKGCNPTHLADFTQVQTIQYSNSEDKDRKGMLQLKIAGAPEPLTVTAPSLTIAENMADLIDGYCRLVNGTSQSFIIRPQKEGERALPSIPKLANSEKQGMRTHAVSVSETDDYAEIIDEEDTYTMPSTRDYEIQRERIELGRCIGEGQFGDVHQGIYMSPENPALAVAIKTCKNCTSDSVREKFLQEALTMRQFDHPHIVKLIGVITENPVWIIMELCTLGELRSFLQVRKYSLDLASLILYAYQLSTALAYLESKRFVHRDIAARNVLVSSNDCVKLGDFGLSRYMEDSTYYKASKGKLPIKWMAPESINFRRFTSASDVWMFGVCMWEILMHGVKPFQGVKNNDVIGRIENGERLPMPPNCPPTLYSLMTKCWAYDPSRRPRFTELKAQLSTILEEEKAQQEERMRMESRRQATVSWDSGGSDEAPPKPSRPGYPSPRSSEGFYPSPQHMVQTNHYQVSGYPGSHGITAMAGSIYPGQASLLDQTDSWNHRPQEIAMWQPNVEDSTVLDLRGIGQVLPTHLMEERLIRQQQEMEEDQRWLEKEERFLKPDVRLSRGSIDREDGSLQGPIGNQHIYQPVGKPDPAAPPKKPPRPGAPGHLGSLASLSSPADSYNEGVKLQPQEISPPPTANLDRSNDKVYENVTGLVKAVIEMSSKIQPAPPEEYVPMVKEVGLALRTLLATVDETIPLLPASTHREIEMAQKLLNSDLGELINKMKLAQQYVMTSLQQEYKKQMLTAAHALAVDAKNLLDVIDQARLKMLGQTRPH

Row | SMILES | pIC50 (FAK recombinant protein) | pIC50 (PC3 cells [1]) | pIC50 (PC3 cells [2])
1 | COc1cc(C(=O)NC2CCN(CS(C)(=O)=O)CC2)ccc1Nc1ncc(C(F)(F)F)c(Oc2cccc3c2C(=O)N(C)C32CC2)n1 [Compound 38] | > 7.70 | 7.30 to 8.30 | < 5.70
2 | COc1cc(C(=O)NC2CCN(CC(N)=O)CC2)ccc1Nc1ncc(C(F)(F)F)c(Oc2cccc3c2C(=O)N(C)C32CC2)n1 [Compound 39] | > 7.70 | > 8.30 | < 5.70
3 | [2H]C([2H])([2H])N1CCC(NC(=O)c2cc(OC)c(Nc3ncc(C(F)(F)F)c(Oc4cccc5c4C(=O)N(C)C54CC4)n3)cc2F)CC1 [Compound 40] | > 7.70 | > 8.30 | < 5.70
4 | CCN1CCC(NC(=O)c2cc(OC)c(Nc3ncc(C(F)(F)F)c(Oc4cccc5c4C(=O)N(C)C54CC4)n3)cc2F)CC1 [Compound 41] | > 7.70 | > 8.30 | < 5.70
5 | [2H]C([2H])([2H])N1CCC(C)(NC(=O)c2ccc(Nc3ncc(C(F)(F)F)c(Oc4cccc5c4C(=O)N(C)C54CC4)n3)c(OC)c2)CC1 [Compound 42] | > 7.70 | > 8.30 | < 5.70
6 | [2H]C([2H])([2H])N1CCC(C)(NC(=O)c2cc(OC)c(Nc3ncc(C(F)(F)F)c(Oc4cccc5c4C(=O)N(C)C54CC4)n3)cc2F)CC1 [Compound 43] | > 7.70 | > 8.30 | < 5.70
7 | COc1cc(C(=O)NC2CC3(CCNCC3)C2)ccc1Nc1ncc(C(F)(F)F)c(Oc2cccc3c2C(=O)N(C)C32CC2)n1 [Compound 44] | > 7.70 | 7.30 to 8.30 | < 5.70
8 | [2H]C([2H])([2H])N1CCC2(CC1)CC(NC(=O)c1ccc(Nc3ncc(C(F)(F)F)c(Oc4cccc5c4C(=O)N(C)C54CC4)n3)c(OC)c1)C2 [Compound 45] | > 7.70 | > 8.30 | < 5.70
9 | CCN1CCC2(CC1)CC(NC(=O)c1ccc(Nc3ncc(C(F)(F)F)c(Oc4cccc5c4C(=O)N(C)C54CC4)n3)c(OC)c1)C2 [Compound 46] | > 7.70 | 7.30 to 8.30 | < 5.70
10 | [2H]C([2H])([2H])N1CCC2(CC1)CC(NC(=O)c1cc(OC)c(Nc3ncc(C(F)(F)F)c(Oc4cccc5c4C(=O)N(C)C54CC4)n3)cc1F)C2 [Compound 47] | > 7.70 | > 8.30 | < 5.70
11 | CCN1CCC2(CC1)CC(NC(=O)c1cc(OC)c(Nc3ncc(C(F)(F)F)c(Oc4cccc5c4C(=O)N(C)C54CC4)n3)cc1F)C2 [Compound 48] | > 7.70 | 7.30 to 8.30 | < 5.70
12 | C=Cc1cc(C(=O)NC2CCN(C)CC2)ccc1Nc1ncc(C(F)(F)F)c(Oc2cccc3c2C(=O)N(C)C32CC2)n1 [Compound 49] | > 7.70 | 7.30 to 8.30 | < 5.70
13 | CCc1cc(C(=O)NC2CCN(C)CC2)ccc1Nc1ncc(C(F)(F)F)c(Oc2cccc3c2C(=O)N(C)C32CC2)n1 [Compound 50] | > 7.70 | 7.30 to 8.30 | < 5.70
14 | CCc1cc(C(=O)NC2CCN(C)CC2)c(F)cc1Nc1ncc(C(F)(F)F)c(Oc2cccc3c2C(=O)N(C)C32CC2)n1 [Compound 51] | > 7.70 | 7.30 to 8.30 | < 5.70
15 | CCc1cc(C(=O)NC2CC3(CCN(C)CC3)C2)ccc1Nc1ncc(C(F)(F)F)c(Oc2cccc3c2C(=O)N(C)C32CC2)n1 [Compound 52] | > 7.70 | > 8.30 | < 5.70
16 | CN1CCC(NC(=O)c2ccc(Nc3ncc(C(F)(F)F)c(Oc4cccc5c4C(=O)N(C)C54CC4)n3)c(OC(F)(F)F)c2)CC1 [Compound 53] | > 7.70 | 7.30 to 8.30 | < 5.70
17 | COc1cc(C(=O)NC2CCN(C)CC2)c(-c2cnn(C)c2)cc1Nc1ncc(C(F)(F)F)c(Oc2cccc3c2C(=O)N(C)C32CC2)n1 [Compound 54] | > 7.70 | > 8.30 | < 5.70
18 | COc1cc(C(=O)N2CC3(CCN(C)CC3)C2)ccc1Nc1ncc(C(F)(F)F)c(Oc2cccc3c2C(=O)N(C)C32CC2)n1 [Compound 55] | > 7.70 | 7.30 to 8.30 | < 5.70
19 | COc1cc(C(=O)N2CCC3(CCN(C)CC3)CC2)ccc1Nc1ncc(C(F)(F)F)c(Oc2cccc3c2C(=O)N(C)C32CC2)n1 [Compound 56] | > 7.70 | < 7.30 | < 5.70
20 | COc1cc(C(=O)N2CCC3(CCN(C)C3)C2)ccc1Nc1ncc(C(F)(F)F)c(Oc2cccc3c2C(=O)N(C)C32CC2)n1 (stereo not drawn) [Compound 57] | > 7.70 | 7.30 to 8.30 | < 5.70
21 | COc1cc(C(=O)N2CCC23CCN(C)CC3)ccc1Nc1ncc(C(F)(F)F)c(Oc2cccc3c2C(=O)N(C)C32CC2)n1 [Compound 59] | > 7.70 | 7.30 to 8.30 | < 5.70

Row | SMILES | pIC50 (FAK recombinant protein) | pIC50 (PC3 cells [1]) | pIC50 (PC3 cells [2])
22 | COc1cc(C(=O)N2CCC3(CCN(C)CC3)C2)ccc1Nc1ncc(C(F)(F)F)c(Oc2cccc3c2C(=O)N(C)C32CC2)n1 [Compound 60] | > 7.70 | 7.30 to 8.30 | < 5.70
23 | COc1cc(C(=O)N2CCC3(CCCN(C)C3)C2)ccc1Nc1ncc(C(F)(F)F)c(Oc2cccc3c2C(=O)N(C)C32CC2)n1 (stereo not drawn) [Compound 61] | > 7.70 | 7.30 to 8.30 | < 5.70
24 | COc1cc(N2CCC3(CCN(C)CC3)C2=O)ccc1Nc1ncc(C(F)(F)F)c(Oc2cccc3c2C(=O)N(C)C32CC2)n1 [Compound 62] | > 7.70 | 7.30 to 8.30 | < 5.70
25 | COc1cc(N2CC3(CCN(C)CC3)CC2=O)ccc1Nc1ncc(C(F)(F)F)c(Oc2cccc3c2C(=O)N(C)C32CC2)n1 [Compound 63] | > 7.70 | > 8.30 | < 5.70
26 | COc1cc(N2CC3(CCN(C)CC3)OC2=O)ccc1Nc1ncc(C(F)(F)F)c(Oc2cccc3c2C(=O)N(C)C32CC2)n1 [Compound 64] | > 7.70 | 7.30 to 8.30 | < 5.70
27 | COc1cc(N2CC3(CCN(C)C3)OC2=O)ccc1Nc1ncc(C(F)(F)F)c(Oc2cccc3c2C(=O)N(C)C32CC2)n1 (stereo not drawn) [Compound 65] | > 7.70 | > 8.30 | < 5.70
28 | COc1cc(N2CC3(CCC2=O)CCN(C)CC3)ccc1Nc1ncc(C(F)(F)F)c(Oc2cccc3c2C(=O)N(C)C32CC2)n1 [Compound 66] | > 7.70 | < 7.30 | < 5.70
29 | COc1cc(N2CC3(CCN(C)C3)OCC2=O)ccc1Nc1ncc(C(F)(F)F)c(Oc2cccc3c2C(=O)N(C)C32CC2)n1 (stereo not drawn) [Compound 67] | > 7.70 | 7.30 to 8.30 | < 5.70
30 | COc1cc(C2=NOC3(CCN(C)CC3)C2)ccc1Nc1ncc(C(F)(F)F)c(Oc2cccc3c2C(=O)N(C)C32CC2)n1 [Compound 68] | > 7.70 | < 7.30 | < 5.70
31 | CN1C(=O)c2c(Oc3nc(Nc4ccc5c(c4)CNC5=O)ncc3C(F)(F)F)cccc2C12CC2 [Compound 70] | > 7.70 | < 7.30 | < 5.70
32 | CN1CCC(N2C(=O)Cc3cc(Nc4ncc(C(F)(F)F)c(Oc5cccc6c5C(=O)N(C)C65CC5)n4)ccc32)CC1 [Compound 72] | > 7.70 | > 8.30 | < 5.70
33 | COc1cc(N2CCNCC2)ccc1Nc1ncc(C(F)(F)F)c(Oc2cccc3c2C(=O)N(C)C32CC2)n1 [Compound 74, 4′-((2-((2-methoxy-4-(piperazin-1-yl)phenyl)amino)-5-(trifluoromethyl)pyrimidin-4-yl)oxy)-2′-methylspiro[cyclopropane-1,1′-isoindolin]-3′-one] | > 7.70 | 7.30 to 8.30 | < 5.70
34 | COc1cc(N2CCN(CC(=O)N(C)C)CC2)ccc1Nc1ncc(C(F)(F)F)c(Oc2cccc3c2C(=O)N(C)C32CC2)n1 [Compound 75, 2-(4-(3-methoxy-4-((4-((2′-methyl-3′-oxospiro[cyclopropane-1,1′-isoindolin]-4′-yl)oxy)-5-(trifluoromethyl)pyrimidin-2-yl)amino)phenyl)piperazin-1-yl)-N,N-dimethylacetamide] | > 7.70 | > 8.30 | < 5.70
35 | COCCN1CCN(c2ccc(Nc3ncc(C(F)(F)F)c(Oc4cccc5c4C(=O)N(C)C54CC4)n3)c(OC)c2)CC1 [Compound 76, 4′-((2-((2-methoxy-4-(4-(2-methoxyethyl)piperazin-1-yl)phenyl)amino)-5-(trifluoromethyl)pyrimidin-4-yl)oxy)-2′-methylspiro[cyclopropane-1,1′-isoindolin]-3′-one] | > 7.70 | > 8.30 | < 5.70
36 | COc1cc(CN(C)C)ccc1Nc1ncc(C(F)(F)F)c(Oc2cccc3c2C(=O)N(C)C32CC2)n1 [Compound 80] | > 7.70 | 7.30 to 8.30 | < 5.70
37 | COc1cc(CN2CCCC2)ccc1Nc1ncc(C(F)(F)F)c(Oc2cccc3c2C(=O)N(C)C32CC2)n1 [Compound 81] | > 7.70 | 7.30 to 8.30 | < 5.70
38 | COc1cc(N2CCN(C)CC2=O)ccc1Nc1ncc(C(F)(F)F)c(Oc2cccc3c2C(=O)N(C)C32CC2)n1 [Compound 83] | > 7.70 | < 7.30 | < 5.70
39 | COc1cc(C2CCN(C)CC2)ccc1Nc1ncc(C(F)(F)F)c(Oc2cccc3c2C(=O)N(C)C32CC2)n1 [Compound 84] | > 7.70 | > 8.30 | < 5.70
40 | CN1CCN(c2ccc(Nc3ncc(C(F)(F)F)c(Oc4cccc5c4C(=O)N(C)C54CC4)n3)nc2)CC1 [Compound 85] | > 7.70 | 7.30 to 8.30 | < 5.70
41 | COc1cc2c(cc1Nc1ncc(C(F)(F)F)c(Oc3cccc4c3C(=O)N(C)C43CC3)n1)CN(C)CC2 [Compound 86] | > 7.70 | 7.30 to 8.30 | < 5.70
